Patent US12286429B2, “5-oxo-1,2,3,5,8,8a-hexahydroindolizine-3-carboxamide derivatives useful as a factor XIa inhibitors” (Janssen Pharmaceutica NV, priority 2021, dated 2025)

Columns and labels:
Factor XIa = Factor XIa (Homo sapiens, UniProt P03951); test: Factor XIa inhibition assay utilizing a fluorophore-quencher pair peptide substrate (FLINT); assay type: biochemical; settings: 11-point, 3-fold serial dilution, top 100 nM; 30 min preincubation; 15 μM 5Fam-KLTRAETV-K5Tamra substrate; kinetic reads over 30 min; read-out: FXIa Inhibition IC50
Outline: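 FXIa ([…]) preincubated 30 min with compound (11-point, 3-fold, top 100 nM, 2% DMSO) in Tris pH 7.5, NaCl, CaCl2, BSA, CHAPS; 15 μM 5Fam-KLTRAETV-K5Tamra substrate then added. Fluorescence (485/520 nm) read kinetically over 30 min at room temperature; IC50 by 4-parameter fit.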

human plasma kallikrein = human plasma kallikrein (Homo sapiens, UniProt P03952); test: Kallikrein inhibition assay utilizing a quenched AMC peptide substrate (FLINT); assay type: biochemical; settings: 11-point, 3-fold serial dilution, top 1 μM; 30 min preincubation; 2 nM kallikrein; 50 μM Z-Gly-Pro-Arg-AMC; kinetic reads over 30 min
Outline: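 Human plasma kallikrein (2 nM final) was pre-incubated 30 min at room temperature with compound (11-point 3-fold series, top 1 μM, 2% DMSO) in Tris pH 7.5, NaCl, CaCl2, BSA, CHAPS buffer. Reaction started with 50 μM Z-Gly-Pro-Arg-AMC (KM 40 μM), and fluorescence (340/440 nm) was read kinetically over 30 min. IC50 came from a 4-parameter logistic fit.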

human plasma kallikrein, sequence (P03952 391-638 limits assumed): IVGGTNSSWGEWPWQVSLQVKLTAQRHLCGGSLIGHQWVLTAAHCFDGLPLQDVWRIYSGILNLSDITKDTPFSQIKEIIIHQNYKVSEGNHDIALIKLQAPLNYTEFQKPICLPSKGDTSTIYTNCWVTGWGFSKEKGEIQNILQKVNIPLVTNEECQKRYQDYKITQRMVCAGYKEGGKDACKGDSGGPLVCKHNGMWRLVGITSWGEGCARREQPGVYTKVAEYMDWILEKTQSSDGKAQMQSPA
human plasma kallikrein, sequence (P03952 20-390 partner limits assumed): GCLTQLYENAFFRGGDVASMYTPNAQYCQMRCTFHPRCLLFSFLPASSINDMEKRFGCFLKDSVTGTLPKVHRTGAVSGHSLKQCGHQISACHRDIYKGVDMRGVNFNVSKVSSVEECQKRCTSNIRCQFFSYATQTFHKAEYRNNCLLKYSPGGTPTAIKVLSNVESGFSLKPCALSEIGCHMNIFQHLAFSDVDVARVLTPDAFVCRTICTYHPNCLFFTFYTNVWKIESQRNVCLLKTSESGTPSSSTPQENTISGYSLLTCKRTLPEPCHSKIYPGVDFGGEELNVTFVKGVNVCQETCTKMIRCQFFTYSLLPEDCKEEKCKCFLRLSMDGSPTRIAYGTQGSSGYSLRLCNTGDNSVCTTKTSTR
Factor XIa, sequence (P03951 388-625 limits assumed): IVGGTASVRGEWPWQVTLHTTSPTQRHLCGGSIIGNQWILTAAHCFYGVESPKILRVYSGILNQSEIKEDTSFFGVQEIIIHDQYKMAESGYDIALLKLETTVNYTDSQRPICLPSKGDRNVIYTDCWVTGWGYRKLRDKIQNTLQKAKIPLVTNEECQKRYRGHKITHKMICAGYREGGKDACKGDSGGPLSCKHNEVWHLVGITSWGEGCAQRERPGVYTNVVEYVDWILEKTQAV
Factor XIa, sequence (P03951 19-387 partner limits assumed): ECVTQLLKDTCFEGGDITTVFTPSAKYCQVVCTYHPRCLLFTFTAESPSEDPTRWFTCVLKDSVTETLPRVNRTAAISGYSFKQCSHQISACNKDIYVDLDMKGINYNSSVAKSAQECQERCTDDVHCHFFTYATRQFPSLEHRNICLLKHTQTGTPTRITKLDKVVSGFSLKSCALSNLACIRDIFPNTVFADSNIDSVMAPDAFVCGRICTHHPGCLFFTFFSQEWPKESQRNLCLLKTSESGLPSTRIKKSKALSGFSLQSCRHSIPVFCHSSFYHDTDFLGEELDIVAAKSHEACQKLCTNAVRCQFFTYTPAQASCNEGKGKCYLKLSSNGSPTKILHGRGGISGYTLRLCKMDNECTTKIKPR

IC50 (Factor XIa) | IC50 (human plasma kallikrein) | SMILES
65 nM | 131 nM | CC1(C)C(=O)Nc2ccc(NC(=O)[C@@H]3CC[C@@H]4CC(c5c(-n6cnnn6)ccc(Cl)c5F)=CC(=O)N43)cc21 [ID No. 7, (3S,8aR)-7-(3-Chloro-2-fluoro-6-(1H-tetrazol-1-yl)phenyl)-N-(3,3-dimethyl-2-oxoindolin-5-yl)-5-oxo-1,2,3,5,8,8a-hexahydroindolizine-3-carboxamide]
15.5 nM | 128 nM | COCCNC(=O)c1ccc(NC(=O)[C@@H]2CC[C@@H]3CC(c4c(-n5cnnn5)ccc(Cl)c4F)=CC(=O)N32)cc1F (single isomer, unassigned) [ID No. 5, (3S,8aR*)-7-(3-chloro-2-fluoro-6-(1H-tetrazol-1-yl)phenyl)-N-(3-fluoro-4-((2-methoxyethyl)carbamoyl)phenyl)-5-oxo-1,2,3,5,8,8a-hexahydroindolizine-3-carboxamide]
3.2 nM | 60.4 nM | O=C(O)c1[nH]c2ccc(NC(=O)[C@@H]3CCC4CC(c5c(-n6cnnn6)ccc(Cl)c5F)=CC(=O)N43)cc2c1F (mixture of isomers) [ID No. 26, 5-[[(3S)-7-[3-Chloro-2-fluoro-6-(tetrazol-1-yl)phenyl]-5-oxo-2,3,8,8a-tetrahydro-1H-indolizine-3-carbonyl]amino]-3-fluoro-1H-indole-2-carboxylic acid]
6.4 nM | 11.3 nM | C[C@@H](O)c1cnc2cc(NC(=O)[C@@H]3CCC4CC(c5c(-n6cnnn6)ccc(Cl)c5F)=CC(=O)N43)ccc2n1 (single isomer, unassigned) [ID No. 2]
33.5 nM | 50.4 nM | CC(O)c1nc2cc(NC(=O)[C@@H]3CCC4CC(c5c(-n6cnnn6)ccc(Cl)c5F)=CC(=O)N43)ccc2s1 (mixture of isomers) [compound 92]
> 50 nM | 190 nM | CCOCCOc1ccc2cc(NC(=O)[C@@H]3CCC4CC(c5c(-n6cc(C(F)(F)F)nn6)ccc(Cl)c5F)=CC(=O)N43)ccc2n1 (mixture of isomers) [compound 107]
3.4 nM | 60.1 nM | O=C(Nc1ccc(-c2noc(=O)[nH]2)cc1)[C@@H]1CC[C@@H]2CC(c3c(-n4cnnn4)ccc(Cl)c3F)=CC(=O)N21 [ID No. 17, (3S,8aR)-7-(3-Chloro-2-fluoro-6-(1H-tetrazol-1-yl)phenyl)-5-oxo-N-(4-(5-oxo-4,5-dihydro-1,2,4-oxadiazol-3-yl)phenyl)-1,2,3,5,8,8a-hexahydroindolizine-3-carboxamide]
6.6 nM | 27.7 nM | O=C(Nc1ccc2ncsc2c1)[C@@H]1CCC2CC(c3c(-n4cnnn4)ccc(Cl)c3F)=CC(=O)N21 (mixture of isomers) [ID No. 55, (3S)—N-(Benzo[d]thiazol-6-yl)-7-(3-chloro-2-fluoro-6-(1H-tetrazol-1-yl)phenyl)-5-oxo-1,2,3,5,8,8a-hexahydroindolizine-3-carboxamide]
82.9 nM | 38.8 nM | CC1(C)C[C@@H](C(=O)Nc2ccc3nccnc3c2)N2C(=O)C=C(c3c(-n4cnnn4)ccc(Cl)c3F)CC21 (single isomer, unassigned) [ID No. 59, (3S,8aR*)-7-[3-Chloro-2-fluoro-6-(tetrazol-1-yl)phenyl]-1,1-dimethyl-5-oxo-N-quinoxalin-6-yl-2,3,8,8a-tetrahydroindolizine-3-carboxamide]
9.1 nM | 37.4 nM | O=C(Nc1ccc2[nH]nnc2c1)[C@@H]1CC[C@@H]2CC(c3c(-n4cnnn4)ccc(Cl)c3F)=CC(=O)N21 [ID No. 21, (3S,8aR)—N-(1H-Benzo[d][1,2,3]triazol-5-yl)-7-(3-chloro-2-fluoro-6-(1H-tetrazol-1-yl)phenyl)-5-oxo-1,2,3,5,8,8a-hexahydroindolizine-3-carboxamide]
26.9 nM | 106 nM | COCCn1ncc2cc(NC(=O)[C@@H]3CCC4CC(c5c(-n6cnnn6)ccc(Cl)c5F)=CC(=O)N43)ccc21 (mixture of isomers) [ID No. 4, (3S)-7-(3-chloro-2-fluoro-6-(1H-tetrazol-1-yl)phenyl)-N-(1-(2-methoxyethyl)-1H-indazol-5-yl)-5-oxo-1,2,3,5,8,8a-hexahydroindolizine-3-carboxamide]
12.9 nM | 68.4 nM | O=C1CCc2cc(NC(=O)[C@@H]3CC[C@@H]4CC(c5c(-n6cnnn6)ccc(Cl)c5F)=CC(=O)N43)ccc2N1 [ID No. 13]
26.3 nM | 156 nM | O=C(Nc1ccc(-n2cnnn2)cc1)[C@@H]1CCC2CC(c3c(-n4cnnn4)ccc(Cl)c3F)=CC(=O)N21 (mixture of isomers) [ID No. 73, (3S)-7-[3-Chloro-2-fluoro-6-(tetrazol-1-yl)phenyl]-5-oxo-N-[4-(tetrazol-1-yl)phenyl]-2,3,8,8a-tetrahydro-1H-indolizine-3-carboxamide]
1.7 nM | 47.1 nM | O=C(Nc1ccc(-c2cnn[nH]2)cc1)[C@@H]1CCC2CC(c3c(-n4cnnn4)ccc(Cl)c3F)=CC(=O)N21 (mixture of isomers) [ID No. 68, (3S)-7-[3-Chloro-2-fluoro-6-(tetrazol-1-yl)phenyl]-5-oxo-N-[4-(1H-triazol-5-yl)phenyl]-2,3,8,8a-tetrahydro-1H-indolizine-3-carboxamide]
3 nM | 9.5 nM | O=C(Nc1ccc2[nH]c(=O)cc(O)c2c1)[C@@H]1CCC2CC(c3c(-n4cnnn4)ccc(Cl)c3F)=CC(=O)N21 (mixture of isomers) [ID No. 64, (3S)-7-[3-Chloro-2-fluoro-6-(tetrazol-1-yl)phenyl]-N-(4-hydroxy-2-oxo-1H-quinolin-6-yl)-5-oxo-2,3,8,8a-tetrahydro-1H-indolizine-3-carboxamide]
22.7 nM | 59.6 nM | CCn1cnc2ccc(NC(=O)[C@@H]3CC[C@@H]4CC(c5c(-n6cnnn6)ccc(Cl)c5F)=CC(=O)N43)cc2c1=O [ID No. 14, (3S,8aR)-7-(3-Chloro-2-fluoro-6-(1H-tetrazol-1-yl)phenyl)-N-(3-ethyl-4-oxo-3,4-dihydroquinazolin-6-yl)-5-oxo-1,2,3,5,8,8a-hexahydroindolizine-3-carboxamide]
3.9 nM | 7.5 nM | C[C@H]1C[C@@H](C(=O)Nc2ccc3nccnc3c2)N2C(=O)C=C(c3c(-n4cnnn4)ccc(Cl)c3F)C[C@@H]12 (single isomer, unassigned) [ID No. 79, (1S*,3S,8aS*)-7-[3-Chloro-2-fluoro-6-(tetrazol-1-yl)phenyl]-1-methyl-5-oxo-N-quinoxalin-6-yl-2,3,8,8a-tetrahydro-1H-indolizine-3-carboxamide]
1.2 nM | 107 nM | O=C(O)c1ccc(NC(=O)[C@@H]2CCC3CC(c4c(-n5cnnn5)ccc(Cl)c4F)=CC(=O)N32)cc1F (mixture of isomers) [ID No. 58, 4-[[(3S)-7-[3-Chloro-2-fluoro-6-(tetrazol-1-yl)phenyl]-5-oxo-2,3,8,8a-tetrahydro-1H-indolizine-3-carbonyl]amino]-2-fluoro-benzoic acid]
28.1 nM | 116 nM | NC(=O)c1ccc(NC(=O)[C@@H]2CC[C@@H]3CC(c4cc(Cl)ccc4-n4cc(C(F)(F)F)nn4)=CC(=O)N32)cc1F [ID No. 25, (3S,8aR)—N-(4-Carbamoyl-3-fluorophenyl)-7-(5-chloro-2-(4-(trifluoromethyl)-1H-1,2,3-triazol-1-yl)phenyl)-5-oxo-1,2,3,5,8,8a-hexahydroindolizine-3-carboxamide]
5.8 nM | 282 nM | O=C(O)c1c(F)cc(NC(=O)[C@@H]2CCC3CC(c4c(-n5cnnn5)ccc(Cl)c4F)=CC(=O)N32)cc1F (mixture of isomers) [ID No. 37, 4-[[(3S)-7-[3-Chloro-2-fluoro-6-(tetrazol-1-yl)phenyl]-5-oxo-2,3,8,8a-tetrahydro-1H-indolizine-3-carbonyl]amino]-2,6-difluoro-benzoic acid]
> 50 nM | 497 nM | Cn1nc2ccc(NC(=O)C3CCC4CC(c5c(-n6cc(C(F)(F)F)nn6)ccc(Cl)c5F)=CC(=O)N43)cc2n1 (centres unmarked) [compound 106]
24 nM | 204 nM | NC(=O)c1c(F)cc(NC(=O)[C@@H]2CCC3CC(c4c(-n5cnnn5)ccc(Cl)c4F)=CC(=O)N32)cc1F (mixture of isomers) [ID No. 33, (3S)—N-(4-Carbamoyl-3,5-difluorophenyl)-7-(3-chloro-2-fluoro-6-(1H-tetrazol-1-yl)phenyl)-5-oxo-1,2,3,5,8,8a-hexahydroindolizine-3-carboxamide]
13.3 nM | 17.2 nM | CC1(C)C[C@@H](C(=O)Nc2ccc3nccnc3c2)N2C(=O)C=C(c3c(-n4cnnn4)ccc(Cl)c3F)CC21 (single isomer, unassigned) [ID No. 62, (3S,8aS*)-7-[3-Chloro-2-fluoro-6-(tetrazol-1-yl)phenyl]-1,1-dimethyl-5-oxo-N-quinoxalin-6-yl-2,3,8,8a-tetrahydroindolizine-3-carboxamide]
5.4 nM | 19 nM | O=C(Nc1ccc2n[nH]nc2c1)[C@@H]1CCC2CC(c3c(-n4cnnn4)ccc(Cl)c3F)=CC(=O)N21 (mixture of isomers) [ID No. 56, (3S)—N-(2H-benzo[d][1,2,3]triazol-5-yl)-7-(3-chloro-2-fluoro-6-(1H-tetrazol-1-yl)phenyl)-5-oxo-1,2,3,5,8,8a-hexahydroindolizine-3-carboxamide]
7.5 nM | 53 nM | NC(=O)c1ccc(NC(=O)[C@@H]2CCC3CC(c4c(-n5cnnn5)ccc(Cl)c4F)=CC(=O)N32)cc1F (mixture of isomers) [ID No. 39, (3S)—N-(4-Carbamoyl-3-fluorophenyl)-7-(3-chloro-2-fluoro-6-(1H-tetrazol-1-yl)phenyl)-5-oxo-1,2,3,5,8,8a-hexahydroindolizine-3-carboxamide]
